Like-named read-outs stand apart in the source and are kept apart here.
Experiments:
[1] = target: T1, Recombinant Human TMPRSS2 (Homo sapiens, UniProt O15393); experiment: TMPRSS2 biochemical assay with pre-incubation of inhibitor and enzyme; settings: for inhibition at 2.788 pM: concentration 0.00278767 nM; for inhibition at 8.363 pM: concentration 0.00836301 nM; for inhibition at 25.09 pM: concentration 0.025089 nM; for inhibition at 75.27 pM: concentration 0.0752671 nM; for inhibition at 0.000225801 µM: concentration 0.225801 nM; for inhibition at 0.000677404 µM: concentration 0.677404 nM; for inhibition at 0.00203221 µM: concentration 2.03221 nM; for inhibition at 0.00609663 µM: concentration 6.09663 nM; for inhibition at 0.0182899 µM: concentration 18.2899 nM; for inhibition at 0.0548697 µM: concentration 54.8697 nM; for inhibition at 0.164609 µM: concentration 164.609 nM; for inhibition at 0.493827 µM: concentration 493.827 nM; for inhibition at 1.48148 µM: concentration 1481.48 nM; for inhibition at 4.44444 µM: concentration 4444.44 nM; for inhibition at 13.3333 µM: concentration 13333.3 nM; for inhibition at 40 µM: concentration 40000 nM
T1 construct: human TMPRSS2 residues 106492, N-terminal 6x His-tag; 6x His-tag (N); purchased Cusabio CSB-YP023924HU; host or cells: yeast
T1 sequence (O15393 106-492 limits assumed): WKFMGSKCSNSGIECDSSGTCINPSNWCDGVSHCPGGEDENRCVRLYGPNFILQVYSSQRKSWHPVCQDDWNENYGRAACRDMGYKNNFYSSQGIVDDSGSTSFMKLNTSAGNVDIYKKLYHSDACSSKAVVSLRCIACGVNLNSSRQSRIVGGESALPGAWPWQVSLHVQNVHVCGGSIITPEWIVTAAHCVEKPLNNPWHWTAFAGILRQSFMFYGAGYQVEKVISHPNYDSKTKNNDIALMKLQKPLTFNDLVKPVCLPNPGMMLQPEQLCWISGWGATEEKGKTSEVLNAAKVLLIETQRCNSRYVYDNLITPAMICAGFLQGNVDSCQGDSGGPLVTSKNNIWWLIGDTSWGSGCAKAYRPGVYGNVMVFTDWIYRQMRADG
Description: To that was dispensed TMPRSS2 (5 µl, 0.018 mg/ml) in assay buffer (50 mM Tris pH 8, 150 mM NaCl, 0.01% Tween20) using a BioRAPTR (Beckman Coulter) to give a total reaction volume of 5 µl. […] The final assay conditions are 10 µM peptide, 0.018 mg/ml TMPRSS2 in assay buffer (50 mM Tris-HCl, pH 8, 150 mM NaCl, 0.01% Tween20).
After incubation at room temperature for 1 h, fluorescence was measured. […] Raw plate reads for each titration point were normalized relative to a positive control containing no enzyme (0% activity, full inhibition) and a negative control containing DMSO-only wells (100% activity, basal activity). Data normalization was performed using GraphPad Prism (GraphPad Software, San Diego, CA).
We employed the curve fitting algorithm available in the SciPy package (version 1.10.1)[61] to derive the Hill slope and the IC50 value, along with their corresponding error estimates.
To model the relationship between the pre-incubation time and the IC50, we use the following equation inspired by the Morse potential:3 ft,a,D,te=D⋅1−exp−a⋅t−te^2 where t is the time, a is the width of the well, D is the IC50 at infinite time (depth of the well) and te is the time at which the IC50 reaches its minimum. Again, we made use of SciPy’s curve fitting method to obtain parameters a, D and te, with their respective error estimates.

[2] = tested on: pseudovirus bearing S protein of SARS-CoV-2 lineage EG.5.1; experiment: organism not typed; assay type: cell-based; settings: for IC50: Calu-3 cells
[3] = tested on: pseudovirus bearing S protein of SARS-CoV-2 lineage BA.2.86; experiment: organism not typed; assay type: cell-based

In the case of `CN(C)C(=O)COC(=O)Cc1ccc(OC(=O)c2ccc(NC(=N)N)cc2)cc1` [camostat], the inhibition at 2.788 pM ([1]; pre-incubation 0) is reported as -8.21%, the inhibition at 8.363 pM ([1]; pre-incubation 0) is reported as -16.5% and the inhibition at 25.09 pM ([1]; pre-incubation 0) is reported as -12.1%. For the same compound, the inhibition at 75.27 pM ([1]; pre-incubation 0) was 11.6%, the inhibition at 0.000225801 µM ([1]; pre-incubation 0) was 44.8% and the inhibition at 0.000677404 µM ([1]; pre-incubation 0) was 63.8%. The inhibition at 0.00203221 µM ([1]; pre-incubation 0) was 78.4%, the inhibition at 0.00609663 µM ([1]; pre-incubation 0) was 87.8% and the inhibition at 0.0182899 µM ([1]; pre-incubation 0) was 93.9%. It also gave an inhibition at 0.0548697 µM ([1]; pre-incubation 0) of 95.2%, an inhibition at 0.164609 µM ([1]; pre-incubation 0) of 94.9% and an inhibition at 0.493827 µM ([1]; pre-incubation 0) of 96.5%. The inhibition at 1.48148 µM ([1]; pre-incubation 0) was 97.9%, the inhibition at 4.44444 µM ([1]; pre-incubation 0) was 97.2% and the inhibition at 13.3333 µM ([1]; pre-incubation 0) was 98.7%. The inhibition at 40 µM ([1]; pre-incubation 0) was 98.9%, the inhibition at 2.788 pM ([1]; pre-incubation 1) was 6.01% and the inhibition at 8.363 pM ([1]; pre-incubation 1) was 2.49%. It also gave an inhibition at 25.09 pM ([1]; pre-incubation 1) of 10%, an inhibition at 75.27 pM ([1]; pre-incubation 1) of 58.4% and an inhibition at 0.000225801 µM ([1]; pre-incubation 1) of 90.2%. For the same compound, the inhibition at 0.000677404 µM ([1]; pre-incubation 1) was 93.6%, the inhibition at 0.00203221 µM ([1]; pre-incubation 1) was 94.9% and the inhibition at 0.00609663 µM ([1]; pre-incubation 1) was 95.1%. The inhibition at 0.0182899 µM ([1]; pre-incubation 1) was 94.9%, the inhibition at 0.0548697 µM ([1]; pre-incubation 1) was 96.1% and the inhibition at 0.164609 µM ([1]; pre-incubation 1) was 96%. For the same compound, the inhibition at 0.493827 µM ([1]; pre-incubation 1) was 95.8%, the inhibition at 1.48148 µM ([1]; pre-incubation 1) was 97.1% and the inhibition at 4.44444 µM ([1]; pre-incubation 1) was 97.4%. For the same compound, the inhibition at 13.3333 µM ([1]; pre-incubation 1) was 98.2%, the inhibition at 40 µM ([1]; pre-incubation 1) was 99.4% and the inhibition at 2.788 pM ([1]; pre-incubation 4) was 8.38%. It also gave an inhibition at 8.363 pM ([1]; pre-incubation 4) of 5.55%, an inhibition at 25.09 pM ([1]; pre-incubation 4) of 35.8% and an inhibition at 75.27 pM ([1]; pre-incubation 4) of 91%. For the same compound, the inhibition at 0.000225801 µM ([1]; pre-incubation 4) was 96.5%, the inhibition at 0.000677404 µM ([1]; pre-incubation 4) was 97.6% and the inhibition at 0.00203221 µM ([1]; pre-incubation 4) was 97.9%. For the same compound, the inhibition at 0.00609663 µM ([1]; pre-incubation 4) was 98.2%, the inhibition at 0.0182899 µM ([1]; pre-incubation 4) was 98% and the inhibition at 0.0548697 µM ([1]; pre-incubation 4) was 98.6%. The inhibition at 0.164609 µM ([1]; pre-incubation 4) was 98.2%, the inhibition at 0.493827 µM ([1]; pre-incubation 4) was 99.2% and the inhibition at 1.48148 µM ([1]; pre-incubation 4) was 99.4%. It also gave an inhibition at 4.44444 µM ([1]; pre-incubation 4) of 100%, an inhibition at 13.3333 µM ([1]; pre-incubation 4) of 101% and an inhibition at 40 µM ([1]; pre-incubation 4) of 102%. For the same compound, the inhibition at 2.788 pM ([1]; pre-incubation 8) was 20.8%, the inhibition at 8.363 pM ([1]; pre-incubation 8) was 10.7% and the inhibition at 25.09 pM ([1]; pre-incubation 8) was 61.7%. The inhibition at 75.27 pM ([1]; pre-incubation 8) was 104%, the inhibition at 0.000225801 µM ([1]; pre-incubation 8) was 108% and the inhibition at 0.000677404 µM ([1]; pre-incubation 8) was 110%. The inhibition at 0.00203221 µM ([1]; pre-incubation 8) was 111%, the inhibition at 0.00609663 µM ([1]; pre-incubation 8) was 112% and the inhibition at 0.0182899 µM ([1]; pre-incubation 8) was 111%. For the same compound, the inhibition at 0.0548697 µM ([1]; pre-incubation 8) was 112%, the inhibition at 0.164609 µM ([1]; pre-incubation 8) was 113% and the inhibition at 0.493827 µM ([1]; pre-incubation 8) was 113%. For the same compound, the inhibition at 1.48148 µM ([1]; pre-incubation 8) was 114%, the inhibition at 4.44444 µM ([1]; pre-incubation 8) was 115% and the inhibition at 13.3333 µM ([1]; pre-incubation 8) was 114%. The inhibition at 40 µM ([1]; pre-incubation 8) was 115%, the inhibition at 2.788 pM ([1]; pre-incubation 18) was 24.4% and the inhibition at 8.363 pM ([1]; pre-incubation 18) was 17.1%. The inhibition at 25.09 pM ([1]; pre-incubation 18) was 57.1%, the inhibition at 75.27 pM ([1]; pre-incubation 18) was 86.7% and the inhibition at 0.000225801 µM ([1]; pre-incubation 18) was 91.7%. It also gave an inhibition at 0.000677404 µM ([1]; pre-incubation 18) of 94.1%, an inhibition at 0.00203221 µM ([1]; pre-incubation 18) of 95.7% and an inhibition at 0.00609663 µM ([1]; pre-incubation 18) of 98.6%. The inhibition at 0.0182899 µM ([1]; pre-incubation 18) was 99.3%, the inhibition at 0.0548697 µM ([1]; pre-incubation 18) was 99.9% and the inhibition at 0.164609 µM ([1]; pre-incubation 18) was 101%. It also gave an inhibition at 0.493827 µM ([1]; pre-incubation 18) of 102%, an inhibition at 1.48148 µM ([1]; pre-incubation 18) of 102% and an inhibition at 4.44444 µM ([1]; pre-incubation 18) of 103%. The inhibition at 13.3333 µM ([1]; pre-incubation 18) was 103%, the inhibition at 40 µM ([1]; pre-incubation 18) was 104% and the inhibition at 2.788 pM ([1]; pre-incubation 24) was 38.3%. It also gave an inhibition at 8.363 pM ([1]; pre-incubation 24) of 38.8%, an inhibition at 25.09 pM ([1]; pre-incubation 24) of 73.1% and an inhibition at 75.27 pM ([1]; pre-incubation 24) of 100%. The inhibition at 0.000225801 µM ([1]; pre-incubation 24) was 105%, the inhibition at 0.000677404 µM ([1]; pre-incubation 24) was 107% and the inhibition at 0.00203221 µM ([1]; pre-incubation 24) was 107%. The inhibition at 0.00609663 µM ([1]; pre-incubation 24) was 108%, the inhibition at 0.0182899 µM ([1]; pre-incubation 24) was 110% and the inhibition at 0.0548697 µM ([1]; pre-incubation 24) was 110%. It also gave an inhibition at 0.164609 µM ([1]; pre-incubation 24) of 111%, an inhibition at 0.493827 µM ([1]; pre-incubation 24) of 111% and an inhibition at 1.48148 µM ([1]; pre-incubation 24) of 112%. It also gave an inhibition at 4.44444 µM ([1]; pre-incubation 24) of 112%, an inhibition at 13.3333 µM ([1]; pre-incubation 24) of 112% and an inhibition at 40 µM ([1]; pre-incubation 24) of 113%. The inhibition at 2.788 pM ([1]; pre-incubation 48) was 4.55%, the inhibition at 8.363 pM ([1]; pre-incubation 48) was -1.82% and the inhibition at 25.09 pM ([1]; pre-incubation 48) was 28.4%. For the same compound, the inhibition at 75.27 pM ([1]; pre-incubation 48) was 71.5%, the inhibition at 0.000225801 µM ([1]; pre-incubation 48) was 83.3% and the inhibition at 0.000677404 µM ([1]; pre-incubation 48) was 86.8%. The inhibition at 0.00203221 µM ([1]; pre-incubation 48) was 88.2%, the inhibition at 0.00609663 µM ([1]; pre-incubation 48) was 89.9% and the inhibition at 0.0182899 µM ([1]; pre-incubation 48) was 90.6%. For the same compound, the inhibition at 0.0548697 µM ([1]; pre-incubation 48) was 91.9%, the inhibition at 0.164609 µM ([1]; pre-incubation 48) was 92.7% and the inhibition at 0.493827 µM ([1]; pre-incubation 48) was 94.2%. For the same compound, the inhibition at 1.48148 µM ([1]; pre-incubation 48) was 95.1%, the inhibition at 4.44444 µM ([1]; pre-incubation 48) was 97% and the inhibition at 13.3333 µM ([1]; pre-incubation 48) was 100%. It also gave an inhibition at 40 µM ([1]; pre-incubation 48) of 107%, an inhibition at 0.00025 µM ([2]; Calu-3, EG.5.1, concentration 0.25 nM) of 3.95% and an inhibition at 0.0025 µM ([2]; Calu-3, EG.5.1, concentration 2.5 nM) of -5.66%. The inhibition at 0.025 µM ([2]; Calu-3, EG.5.1, concentration 25 nM) was 19.1%, the inhibition at 0.25 µM ([2]; Calu-3, EG.5.1, concentration 250 nM) was 34.3% and the inhibition at 2.5 µM ([2]; Calu-3, EG.5.1, concentration 2500 nM) was 43.1%. For the same compound, the inhibition at 25 µM ([2]; Calu-3, EG.5.1, concentration 25000 nM) was 52.7%, the IC50 ([2]; Fig. 4g, read-out: IC50 estimate, pseudovirus cell entry EG.5.1) was 8.56 ± 6.54 µM and the IC50 ([2]; read-out: IC50, EG.5.1-S protein-driven Calu-3 cell entry) was 8.56 µM. It also gave an inhibition at 0.00025 µM ([3]; Calu-3, BA.2.86, concentration 0.25 nM) of 2.77%, an inhibition at 0.0025 µM ([3]; Calu-3, BA.2.86, concentration 2.5 nM) of 3.7% and an inhibition at 0.025 µM ([3]; Calu-3, BA.2.86, concentration 25 nM) of 24%. It also gave an inhibition at 0.25 µM ([3]; Calu-3, BA.2.86, concentration 250 nM) of 61.2%, an inhibition at 2.5 µM ([3]; Calu-3, BA.2.86, concentration 2500 nM) of 85.5% and an inhibition at 25 µM ([3]; Calu-3, BA.2.86, concentration 25000 nM) of 85.8%. It also gave an IC50 ([3]; Calu-3 cells, read-out: IC50, pseudovirus cell entry BA.2.86) of 148 nM.
